Assays:
[1] = tested on: dopamine (DA) in the striata; assay: MPTP mouse model of PD, HPLC of striatal dopamine; type: in vivo, mice; details: FIG. 10
Description: Six- to eight-week old C57BL/6 mice were purchased from Harlan (Indianapolis, Ind.). For acute MPTP intoxication, mice received four intraperitoneal (i.p.) injections of MPTP-HCl (18 mg/kg of free base; Sigma Chemical Co., St. Louis, Mo.) in saline at 2-h intervals. Control animals received only saline.
GTB was mixed in 0.5% methylcellulose (MC) and from 3 h after the last injection of MPTP, mice were gavaged 100 μL GTB-mixed MC once daily using gavage needle. Therefore, control MPTP mice received only MC as vehicle.
Striatal level of dopamine was quantified in Complete Stand-Alone HPLC-ECD System EiCOMHTEC-500 (JM Science Inc., Grand Island, N.Y.). Briefly, mice were sacrificed by cervical dislocation after 7 days of MPTP intoxication and their striata were collected and immediately frozen in dry ice and stored at −80° C. until analysis. On the day of the analysis, tissues were sonicated in 0.2M perchloric acid containing isoproterenol and resulting homogenates were centrifuged at 20,000×g for 15 min at 4 C. After pH adjustment and filtration, 10 μl of supernatant was injected onto an Eicompak SC-3ODS column (Complete Stand-Alone HPLC-ECD System EiCOMHTEC-500 from JM Science Inc., Grand Island, N.Y.) and analyzed following the manufacturer's protocol.
Next, to determine whether GTB protects against biochemical deficits caused by MPTP, the inventor quantified levels of dopamine (DA) in the striata 7 days after the MPTP treatment. As evident from FIG. 10, MPTP intoxication led to about 75% decrease in striatal DA compared to striata of saline-injected control mice.

[2] = tested on: myelin basic protein (MBP); assay: Myelin gene mRNA expression in spinal cord of EAE mice: MBP; type: in vivo; details: FIG. 5C-E
Description: (§1) Total RNA was isolated from splenic T cells and spinal cord by using the RNeasy mini kit (Qiagen, Valencia, Calif.) and from spleen and cerebellum by using the Ultraspec-II RNA reagent (Biotecx laboratories, Inc, Houston, Tex.) following manufacturer's protocol. To remove any contaminating genomic DNA, total RNA was digested with DNase. Semi-quantitative RT-PCR was carried out using a RT-PCR kit from Clonetech (Mountain View, Calif.). Briefly, 1 μg of total RNA was reverse transcribed using oligo(dT)12-18 as primer and MMLV reverse transcriptase (Clontech) in a 20 μL reaction mixture. […]
(§2) The relative expression of each gene with respect to GAPDH was measured after scanning the bands with a Fluor Chem 8800 Imaging System (Alpha Innotech, San Leandro, Calif.).
(§3) Real-time PCR analysis was performed using the ABI-Prism7700 sequence detection system (Applied Biosystems, Foster City, Calif.). […] Data were processed by the ABI Sequence Detection System 1.6 software and analyzed by ANOVA.
(§4) Demyelination is the most important pathological feature in MS, which is also modeled in EAE animals. […] To confirm this finding, the inventor monitored the expression of […] myelin genes, myelin basic protein (MBP) and proteolipid protein (PLP), and observed a marked loss of mRNA expression of these genes in the spinal cord of untreated EAE mice compared to control mice (FIG. 5C-E).

TGF-β = TGF-β ELISA in serum of EAE mice; type: in vivo; details: GTB from 8 dpt, sacrificed 16 dpt; FIG. 6
From the text: Production of TGF-β in culture supernatant was monitored by ELISA using assay kit from eBioscience (San Diego, Calif.).
Because TGF-β is known to protect mice from EAE, the inventor examined the level of TGF-β in serum of GTB-treated and untreated EAE mice by ELISA. EAE mice receiving GTB or vehicle from 8 dpt were sacrificed on 16 dpt followed by analysis of TGF-β in serum. The inventor observed marked decrease in TGF-β in the serum of EAE mice as compared to control mice (FIG. 6).

[3] = tested on: proteolipid protein (PLP); assay: Myelin gene mRNA expression in spinal cord of EAE mice: PLP; type: in vivo; details: FIG. 5C-E
Description: as §1, §2, §3, §4

IL-1β = assay: Expression of IL-1β in spinal cord of EAE mice (RT-PCR); type: in vivo; details: FIG. 4D-F
Description: (§5) Total RNA was isolated from splenic T cells and spinal cord by using the RNeasy mini kit (Qiagen, Valencia, Calif.) and from spleen and cerebellum by using the Ultraspec-II RNA reagent (Biotecx laboratories, Inc, Houston, Tex.) following manufacturer's protocol. To remove any contaminating genomic DNA, total RNA was digested with DNase. Semi-quantitative RT-PCR was carried out using a RT-PCR kit from Clonetech (Mountain View, Calif.). Briefly, 1 μg of total RNA was reverse transcribed using oligo(dT)12-18 as primer and MMLV reverse transcriptase (Clontech) in a 20 μL reaction mixture. The resulting cDNA was appropriately-diluted, and diluted cDNA was amplified using Titanium Taq DNA polymerase and following primers. Amplified products were electrophoresed on a 1.8% agarose gels and visualized by ethidium bromide staining.
as §2
(§6) Real-time PCR analysis was performed using the ABI-Prism7700 sequence detection system (Applied Biosystems, Foster City, Calif.). […] Data were processed by the ABI Sequence Detection System 1.6 software and analyzed by ANOVA. […]

[4] = tested on: Foxp3+CD4+ population of T cells; assay: Flow cytometry of Tregs in splenocytes of EAE mice; type: in vivo; details: FIG. 7A-D
Description: Two-color flow cytometry was performed as described previously. Briefly, 1×10^6 lymph node cells (LNC) or splenocytes suspended in flow staining buffer were incubated at 4° C. with appropriately diluted FITC-labeled Ab to CD4 for 30 min, washed, and re-suspended in fixation and permeabilization solution. Following incubation in dark for 30 min, cells were washed, blocked with test Fc block (anti-mouse CD16/32) in permeabilization buffer, and subsequently incubated with appropriately diluted PE-labeled Abs to Foxp3 at 4° C. in the dark. After incubation, the cell suspension was centrifuged, washed thrice, and re-suspended in flow staining buffer. The cells then were analyzed through FACS (BD Biosciences, San Jose, Calif.). Cells were gated based on morphological characteristics. Apoptotic and necrotic cells were not accepted for FACS analysis.
Since TGF-β is involved in the differentiation of non-Tregs into Tregs, the inventor monitored the status of Tregs in EAE mice. A major population of Tregs is characterized by a transcription factor FoxP3. During autoimmune insults, Tregs become both numerically and functionally defective. Therefore, as expected, the inventor observed significant reduction in Foxp3+CD4+ population of T cells in EAE splenocytes as evident from FACS dot plot (FIG. 7A-B). […]

[5] = Observation of drug related side effects in mice; type: in vivo; details: any of the mice used during the course of the study
iNOS = assay: Expression of iNOS in spinal cord of EAE mice (RT-PCR); type: in vivo; details: FIG. 4D-F
Description: as §5, §2, §6

O=C(OCC(COC(=O)c1ccccc1)OC(=O)c1ccccc1)c1ccccc1 [GTB, glyceryl tribenzoate]
decrease in striatal dopamine ([1]; GTB 50 mg/kg body wt/d in MPTP-intoxicated mice, MPTP alone about 75% decrease): 25% | dopamine in the striatum ([1]; GTB in MPTP-intoxicated mice, 7 days after MPTP): dose-dependently protected dopamine | MBP mRNA expression in the spinal cord [2]: significant restoration of myelin gene mRNA expression | TGF-β in serum (TGF-β): protected TGF-β | PLP mRNA expression in the spinal cord [3]: significant restoration of myelin gene mRNA expression | expression of IL-1β in the spinal cord (IL-1β): dramatically reduced the expression | Foxp3+CD4+ population in splenocytes [4]: led to the increase in Foxp3+CD4+ population | drug related side effect (e.g. hair loss, weight loss, untoward infection) [5]: did not notice any drug related side effect | expression of iNOS in the spinal cord (iNOS): dramatically reduced the expression
